These results are taken from patent publication US11104665B2, “Pyridazines” (Boehringer Ingelheim International GmbH, priority 2018, dated 2021).

One test deals with Human ATX (Homo sapiens (Human), UniProt Q13822). Put plainly: Assay A: Biochemical ATX Assay. Particulars: recombinant ATX, 18:1 LPC substrate, 18:1 LPA formation; compounds of the invention.
For the next test, the target named is ATX in human whole blood (Homo sapiens (Human), UniProt Q13822). Put plainly: Assay B: Whole-Blood ATX Assay. The format is biochemical. Particulars: 1 h at 37° C., 18:2 LPA formation, compounds of the invention.
The subject of the next test is LPA levels. The note with it: as disclosed in ACS Med. Chem. Lett. 2017, 8, 1252-1257; cited from earlier work.
For another test, the system named is plasma LPA. Put plainly: Assay C: In Vivo, plasma LPA reduction after oral dosing. Also noted: species or system rat. Particulars: rats, 5 mg/kg, 8 hours post application. As for the experimental part: LPA reduction in vivo is determined by measuring the plasma concentration of LPA after oral dosage of the compounds of the present invention. LPA is a very strong bioactive lipid, which efficiently activates downstream pathways via the LPA-receptors 1-6 in a concentration dependent manner. The pronounced and sustained blockage of the LPA formation via ATX inhibition is assessed by measuring the extent of LPA reduction 8 hours after compound dosage. A high reduction of plasma LPA at 8 h is therefore highly indicative for efficacy and sustained duration of action in vivo as well as sustained target engagement of the LPA receptors.
The test substance was solubilized in 0.5% natrosol supplemented with 0.015% Tween 80 for oral application to rats at a dose of 5 mg/kg. Blood samples were collected before compound administration and 8 hours post application on ice using EDTA as coagulation agent. Subsequently, plasma was prepared by centrifugation and stored until analysis at −20° C.
LPAs from plasma samples were extracted by using the procedure described by Scherer et al. (Clinical chemistry 2009, 55, 1218-22). 35 μL of heparinized plasma was mixed with 200 μL 40 mM disodium hydrogen phosphate buffer containing 30 mM citric acid (pH 4) and 1 μM 17:0 LPA (internal standard). Subsequently, 500 μL butanol was added and shaken vigorously for 10 min. Samples were centrifuged afterwards at 4000 rpm, 4° C., for 10 min. […]
A Triple Quad 6500 (ABSciex, Toronto, Canada) was equipped with an Agilent 1290 LC system (Agilent, Santa Clara, Calif.) a CTC autosampler and an Atlantis 50×2.1-mm, 3-μm HILIC LC column (Waters, Elstree, UK). […] The following LPA species were monitored (DP: declustering potential and CE: collision energy): 16:0 LPA at 409.2/152.8, DP=−150, CE=−28; 18:0 LPA at 437.3/152.8, DP=−60, CE=−28; 18:1 LPA at 435.2/152.8, DP=−40, CE=−28; 18:2 LPA at 433.2/152.8, DP=−150, CE=−28; 20:4 LPA at 457.2/152.8, DP=−100, CE=−29 and 17:0 LPA at 423.5/152.8, DP=−100, CE=−36. LPA depletion in percent was calculated based on the baseline LPA levels before test compound application. […]

Where [1] appears, read: vs baseline, sum of LPA, compounds of the invention.

Protocol for ATX in human whole blood: ATX is a soluble plasma protein, which is active in heparinized whole blood. Its substrate LPC is highly abundant, its concentration being in the μM range. Therefore, a whole blood assay at physiological substrate concentrations is a highly relevant assay, predictive for the efficacy of ATX inhibitors in vivo.
45 μL human whole-blood was supplemented with 5 μL of the test compound, dissolved in phosphate-buffered saline (concentration range 0.12 nM-100 μM). This mixture was incubated for 1 h at 37° C. and stopped by addition of 100 μL 40 mM disodium hydrogen phosphate buffer containing 30 mM citric acid (pH 4) and 1 μM 17:0 LPA (internal standard). LPA was extracted by addition of 500 μL 1-butanol, followed by 10-min centrifugation at 4000 rpm, 4° C. From the resultant organic supernatant, a 200 μL aliquot was transferred into a 96-deep-well plate and transferred to the RapidFire-based MS/MS measurement.
The RapidFire autosampler was coupled to a binary pump (Agilent 1290) and a Triple Quad 6500 (ABSciex, Toronto, Canada). This system was equipped with a 10-μL loop, 5-μL Waters Atlantis HILIC cartridge (Waters, Elstree, UK), 90% acetonitrile containing 10 mM ammonium acetate as eluent A and 40% acetonitrile containing 10 mM ammoniumacetate as eluent B. For details see (Bretschneider et al., SLAS Discovery, 2017, 22, 425-432). The MS was operated in negative mode with a source temperature of 550° C., curtain gas=35, gas 1=65, and gas 2=80. The following transitions and MS parameters (DP: declustering potential and CE: collision energy) for the respective LPAs were determined: 18:2 LPA at 433.2/152.8, DP=−150, CE=−27 and 17:0 LPA at 423.5/152.8, DP=−100.
The formation of 18:2 LPA was monitored and evaluated as ratio to 17:0 LPA.
Protocol for Human ATX: 5 nM recombinant ATX (Cayman Chemicals) was supplemented to 50 mM Tris buffer (pH 8.0) containing 3 mM KCl, 1 mM CaCl2, 1 mM MgCl2 0.14 mM NaCl, and 0.1% bovine serum albumin. Test compounds were dissolved in DMSO and tested in the range of 0.1 nM to 10 μM. The enzymatic reaction (22.5 μL) was started by addition of 2.5 μL 10 μM 18:1 LPC (Avanti Lipids, Alabaster, Ala., USA). After 2-h incubation at room temperature, the reaction was stopped by addition of 20 μL water containing 500 nM 20:4 LPA as internal standard and 100 μL 1-butanol for extracting LPA. Subsequently, the plates were centrifuged at 4000 rpm, 4° C., for 2 min. The resultant upper butanol phase was directly used for injection at a RapidFire system (Agilent).
The RapidFire autosampler was coupled to a binary pump (Agilent 1290) and a Triple Quad 6500 (ABSciex, Toronto, Canada). This system was equipped with a 10-μL loop, 5 μL Waters Atlantis HILIC cartridge (Waters, Elstree, UK), 90% acetonitrile containing 10 mM ammonium acetate as eluent A and 40% acetonitrile containing 10 mM ammoniumacetate as eluent B. For details see (Bretschneider et al., SLAS Discovery, 2017). 1 The MS was operated in negative mode with a source temperature of 550° C., curtain gas=35, gas 1=65, and gas 2=80. The following transitions and MS parameters (DP: declustering potential and CE: collision energy) for the respective LPAs were determined: 18:1 LPA at 435.2/152.8, DP=−40, CE=−28 and 20:4 LPA at 457.2/152.8, DP=−100, CE=−27).
The formation of 18:1 LPA was monitored and evaluated as ratio to 20:4 LPA.

Take `CC(=O)N1CCN(c2ccc(CNc3ccc(OCc4cncc(C#N)c4)nn3)cc2)CC1` [Example 1.2]: the IC50 on Human ATX amounted to 2 nM; on ATX in human whole blood, 55 nM. For `COc1ccc(COc2ccc(NCc3ccc(C4CCN(C(C)=O)CC4)cc3)nn2)cn1` [Example 2.2] the same measures were 3 nM and 38 nM.

On to `CC(=O)N1CCN(c2ccc(CNc3ccc(OCc4ccnc(C#N)c4)nn3)cc2)CC1` [Example 1.3], for which the figures for the IC50 at Human ATX and at ATX in human whole blood were 5 nM and 83 nM, respectively. For `COc1cc(COc2ccc(NCc3ccc(N4CCN(C(C)=O)CC4)cc3)nn2)ccn1` [Example 2.3], the IC50 was determined as 8 nM at Human ATX and 186 nM at ATX in human whole blood. As to `O=C(NC[C@@H]1[C@H]2CN(C(=O)OCc3cc(C(F)(F)F)cc(C(F)(F)F)c3)C[C@@H]12)c1ccc2[nH]nnc2c1`, the “LPA levels in vivo” value with LPA levels is recorded as “significantly reduces LPA levels in vivo”. In the case of `CC(=O)N1CCN(c2ccc(CNc3ccc(OCc4cc(Cl)cc(Cl)c4)nn3)cc2)CC1` [Example 1.1, 1-[4-(4-{[6-(3,5-Dichloro-benzyloxy)-pyridazin-3-ylamino]-methyl}-phenyl)-piperazin-1-yl]-ethanone], the IC50 on Human ATX is 6 nM; against ATX in human whole blood, 46 nM. The matching figures for `CC(=O)N1CCN(c2ccc(CNc3ccc(OCc4ccccc4)nn3)cc2)CC1` [Example 2.4]: 3 nM and 73 nM. In the case of `CCc1nc2c(C)cc(N3CCN(CC(=O)N4CC(O)C4)CC3)cn2c1N(C)c1nc(-c2ccc(F)cc2)c(C#N)s1` [Example 2 in WO2014/139882, reference compound], in the test on plasma LPA (prior art compounds of WO2014/139882), the “LPA reduction at 8 h” value worked out at 58.1%. With `COc1ccc(COc2ccc(NCc3ccc(N4CCN(C(C)=O)CC4)cc3)nn2)cn1` [Example 2.1, 1-[4-(4-{[6-(6-Methoxy-pyridin-3-ylmethoxy)-pyridazin-3-ylamino]-methyl}-phenyl)-piperazin-1-yl]-ethanone], the concentration for half-maximal inhibition (IC50) came out at 3 nM at Human ATX and 33 nM at ATX in human whole blood. The “LPA reduction at 8 h” value in the test on plasma LPA (setting [1]) worked out at 98.3%. As for `CC(=O)N1CCN(c2ccc(CNc3ccc(OCc4cc(C#N)cc(OC(F)(F)F)c4)nn3)cc2)CC1` [Example 1.6], the IC50 at Human ATX was found to be 5 nM.

As for `CC(=O)N1CCN(c2ccc(CNc3ccc(OCc4ccc(OC(F)(F)F)nc4)nn3)cc2)CC1` [Example 1.5], the IC50 was 4 nM at Human ATX and 9 nM against ATX in human whole blood. The matching figures for `CC(=O)N1CCC(c2ccc(CNc3ccc(OCc4ccccc4)nn3)cc2)CC1` [Example 2.5]: 4 nM and 264 nM. For the molecule `CC(=O)N1CCN(c2ccc(CNc3ccc(OCc4cccc(C#N)c4)nn3)cc2)CC1` [Example 1.4], the IC50 came to 4 nM at Human ATX and 201 nM at ATX in human whole blood. Further, the “LPA reduction at 8 h” value in the test on plasma LPA (setting [1]) was found to be 95.7%.
